Assay results taken from ChEMBL document CHEMBL1130820, “Search for alpha 1-adrenoceptor subtypes selective antagonists: design, synthesis and biological activity of cystazosin, an alpha 1D-adrenoceptor antagonist” (Bioorg Med Chem Lett, 1998).

Columns and labels:
[1] = target: T1, Adrenergic receptor alpha-2 (Rattus norvegicus, UniProt P22086+P19328+P22909); assay: Antagonistic affinity against native rat cortex Alpha-2 adrenergic receptor; type: functional, tissue-based
T1 sequence (P22086 whole entry): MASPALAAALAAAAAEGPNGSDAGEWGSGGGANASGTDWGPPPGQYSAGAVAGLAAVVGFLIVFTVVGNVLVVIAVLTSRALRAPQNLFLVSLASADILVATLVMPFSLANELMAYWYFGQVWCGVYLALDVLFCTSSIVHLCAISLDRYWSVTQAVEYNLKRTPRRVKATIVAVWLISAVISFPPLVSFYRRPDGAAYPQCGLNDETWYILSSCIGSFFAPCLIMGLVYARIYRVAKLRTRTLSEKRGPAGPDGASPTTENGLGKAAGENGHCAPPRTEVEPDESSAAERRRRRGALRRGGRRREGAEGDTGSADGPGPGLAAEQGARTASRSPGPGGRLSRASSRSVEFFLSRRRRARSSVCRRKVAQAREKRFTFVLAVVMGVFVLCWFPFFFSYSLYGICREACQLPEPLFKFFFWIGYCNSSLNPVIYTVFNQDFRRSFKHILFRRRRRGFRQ
T1 sequence (P19328 whole entry): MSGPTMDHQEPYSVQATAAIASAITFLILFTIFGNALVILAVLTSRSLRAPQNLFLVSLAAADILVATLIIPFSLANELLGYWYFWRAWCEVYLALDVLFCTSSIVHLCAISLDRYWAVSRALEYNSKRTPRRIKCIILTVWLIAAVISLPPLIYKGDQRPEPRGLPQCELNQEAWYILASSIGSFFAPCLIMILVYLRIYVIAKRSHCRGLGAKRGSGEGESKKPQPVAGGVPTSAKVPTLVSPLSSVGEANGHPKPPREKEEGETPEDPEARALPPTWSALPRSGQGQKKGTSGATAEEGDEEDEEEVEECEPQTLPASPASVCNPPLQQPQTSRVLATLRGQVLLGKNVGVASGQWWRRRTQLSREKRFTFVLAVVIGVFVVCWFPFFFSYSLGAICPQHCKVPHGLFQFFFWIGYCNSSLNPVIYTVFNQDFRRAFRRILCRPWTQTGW
T1 sequence (P22909 whole entry): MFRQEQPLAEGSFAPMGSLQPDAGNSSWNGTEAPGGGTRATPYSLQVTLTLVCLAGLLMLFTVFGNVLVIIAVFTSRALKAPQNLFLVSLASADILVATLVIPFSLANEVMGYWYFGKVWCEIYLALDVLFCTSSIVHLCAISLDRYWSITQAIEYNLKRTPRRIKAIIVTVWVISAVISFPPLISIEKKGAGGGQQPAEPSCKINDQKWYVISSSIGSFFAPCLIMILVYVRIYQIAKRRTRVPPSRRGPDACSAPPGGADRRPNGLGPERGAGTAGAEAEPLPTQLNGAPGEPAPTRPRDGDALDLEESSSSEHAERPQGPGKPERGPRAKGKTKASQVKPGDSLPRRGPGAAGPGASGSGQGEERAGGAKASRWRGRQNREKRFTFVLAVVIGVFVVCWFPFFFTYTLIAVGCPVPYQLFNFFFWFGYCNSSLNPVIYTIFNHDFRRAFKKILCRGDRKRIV

[2] = target: T2, Alpha-1D adrenergic receptor (Rattus norvegicus, UniProt P23944); assay: Antagonistic affinity against Alpha-1D adrenergic receptor was determined in isolated thoracic aorta from rat; type: functional, tissue-based; settings: read-out: pA2 (converted)
T2 sequence (P23944 whole entry): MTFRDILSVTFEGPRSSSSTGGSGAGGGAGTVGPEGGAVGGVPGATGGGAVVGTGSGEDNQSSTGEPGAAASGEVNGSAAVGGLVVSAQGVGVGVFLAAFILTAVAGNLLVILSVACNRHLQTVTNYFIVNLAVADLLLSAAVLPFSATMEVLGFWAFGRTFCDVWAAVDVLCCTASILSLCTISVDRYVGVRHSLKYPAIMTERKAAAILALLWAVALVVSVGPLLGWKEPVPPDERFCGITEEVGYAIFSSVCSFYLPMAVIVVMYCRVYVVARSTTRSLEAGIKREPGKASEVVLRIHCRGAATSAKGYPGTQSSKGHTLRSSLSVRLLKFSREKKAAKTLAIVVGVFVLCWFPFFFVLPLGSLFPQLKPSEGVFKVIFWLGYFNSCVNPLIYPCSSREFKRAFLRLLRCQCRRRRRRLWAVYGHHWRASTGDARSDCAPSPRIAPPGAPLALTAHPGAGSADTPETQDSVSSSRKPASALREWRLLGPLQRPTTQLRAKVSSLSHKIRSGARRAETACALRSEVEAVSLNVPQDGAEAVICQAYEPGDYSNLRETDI

[3] = target: T3, 5-hydroxytryptamine receptor 1A (Homo sapiens, UniProt P08908); assay: Antagonistic affinity against cloned human 5-hydroxytryptamine 1A receptor; type: functional
T3 sequence (P08908 whole entry): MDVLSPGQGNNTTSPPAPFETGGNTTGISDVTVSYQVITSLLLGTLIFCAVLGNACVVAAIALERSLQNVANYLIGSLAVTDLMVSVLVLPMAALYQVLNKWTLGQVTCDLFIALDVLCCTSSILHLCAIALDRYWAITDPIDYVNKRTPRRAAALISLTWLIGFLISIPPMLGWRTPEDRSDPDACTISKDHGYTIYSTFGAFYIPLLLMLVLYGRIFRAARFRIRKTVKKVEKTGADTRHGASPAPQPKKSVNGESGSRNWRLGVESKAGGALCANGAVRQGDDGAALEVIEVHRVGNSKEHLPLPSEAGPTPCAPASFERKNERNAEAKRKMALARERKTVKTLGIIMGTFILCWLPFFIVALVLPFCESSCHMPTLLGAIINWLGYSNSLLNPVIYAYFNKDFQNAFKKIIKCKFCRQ

[4] = target: T4, Alpha-1A adrenergic receptor (Rattus norvegicus, UniProt P43140); assay: Antagonistic affinity against Alpha-1A adrenergic receptor was determined in isolated prostatic vas deferens tissue from rat; type: functional, tissue-based; settings: read-out: pA2 (converted)
T4 sequence (P43140 whole entry): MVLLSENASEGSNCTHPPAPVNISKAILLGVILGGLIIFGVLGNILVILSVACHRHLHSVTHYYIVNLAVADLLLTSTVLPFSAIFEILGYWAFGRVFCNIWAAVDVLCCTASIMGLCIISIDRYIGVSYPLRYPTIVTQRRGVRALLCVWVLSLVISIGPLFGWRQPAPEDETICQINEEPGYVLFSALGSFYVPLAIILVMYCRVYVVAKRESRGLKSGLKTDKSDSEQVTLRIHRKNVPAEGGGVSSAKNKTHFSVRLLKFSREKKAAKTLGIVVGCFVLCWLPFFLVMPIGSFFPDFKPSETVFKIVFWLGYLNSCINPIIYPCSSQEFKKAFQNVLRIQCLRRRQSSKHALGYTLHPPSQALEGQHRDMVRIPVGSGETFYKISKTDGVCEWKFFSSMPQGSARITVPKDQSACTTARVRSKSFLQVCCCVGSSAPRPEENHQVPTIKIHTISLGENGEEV

[5] = target: T5, Alpha-1B adrenergic receptor (Rattus norvegicus, UniProt P15823); assay: Antagonistic affinity against Alpha-1B adrenergic receptor was determined in isolated spleen tissue from rat; type: functional, tissue-based; settings: read-out: pA2 (converted)
T5 sequence (P15823 whole entry): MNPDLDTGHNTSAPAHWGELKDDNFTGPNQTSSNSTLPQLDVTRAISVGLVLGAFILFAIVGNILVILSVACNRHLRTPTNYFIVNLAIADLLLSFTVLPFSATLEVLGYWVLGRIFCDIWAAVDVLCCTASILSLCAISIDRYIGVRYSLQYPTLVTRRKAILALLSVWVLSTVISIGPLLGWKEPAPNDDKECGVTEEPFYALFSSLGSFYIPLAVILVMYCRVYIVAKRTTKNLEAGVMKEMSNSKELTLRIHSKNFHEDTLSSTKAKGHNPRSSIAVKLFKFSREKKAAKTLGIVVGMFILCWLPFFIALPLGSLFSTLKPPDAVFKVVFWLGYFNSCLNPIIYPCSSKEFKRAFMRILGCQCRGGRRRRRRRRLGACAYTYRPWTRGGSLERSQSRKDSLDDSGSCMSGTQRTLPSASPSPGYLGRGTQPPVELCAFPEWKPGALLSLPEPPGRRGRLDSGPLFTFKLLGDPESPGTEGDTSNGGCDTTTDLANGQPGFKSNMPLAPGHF

[6] = target: D(2) dopamine receptor (Rattus norvegicus, UniProt P61169); assay: Antagonistic affinity against rat striatum Dopamine receptor D2; type: functional, tissue-based
D(2) dopamine receptor, sequence (P61169 whole entry): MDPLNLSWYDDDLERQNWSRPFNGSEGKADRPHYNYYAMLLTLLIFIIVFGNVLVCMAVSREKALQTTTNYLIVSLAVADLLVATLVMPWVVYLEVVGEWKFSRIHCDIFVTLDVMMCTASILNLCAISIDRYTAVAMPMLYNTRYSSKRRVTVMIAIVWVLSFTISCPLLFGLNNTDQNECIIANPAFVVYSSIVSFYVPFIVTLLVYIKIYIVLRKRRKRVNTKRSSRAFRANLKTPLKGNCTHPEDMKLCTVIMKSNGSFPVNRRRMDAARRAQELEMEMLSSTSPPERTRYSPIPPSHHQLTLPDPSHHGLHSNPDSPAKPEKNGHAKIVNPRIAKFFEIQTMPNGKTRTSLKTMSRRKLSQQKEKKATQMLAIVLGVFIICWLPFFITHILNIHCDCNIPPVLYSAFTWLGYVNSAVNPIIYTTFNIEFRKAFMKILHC

Log Ki [1]	Kb [2]	Ki [3]	Kb [4]	Kb [5]	Ki [6]	SMILES
-6.23	2.88 nM	> 1000 nM	29.5 nM	32.4 nM	–	COc1cc2nc(N(C)CCSSCCN(C)C(=O)c3ccco3)nc(N)c2cc1OC
-7	0.646 nM	> 1000 nM	0.912 nM	0.145 nM	2340 nM	COc1cc2nc(N(C)CCCCCCN(C)C(=O)c3ccco3)nc(N)c2cc1OC
–	–	–	–	–	> 10000 nM	COc1cc2nc(N3CCN(C(=O)c4ccco4)CC3)nc(N)c2cc1OC [PRAZOSIN]
–	45.7 nM	–	1780 nM	115 nM	–	COc1cc2nc(NCCSSCCNC(=O)c3ccco3)nc(N)c2cc1OC
-6.13	–	> 1000 nM	33.1 nM	–	8320 nM	COc1cc2nc(N3CCN(C(=O)c4ccco4)[C@H]4CCCC[C@H]43)nc(N)c2cc1OC [CYCLAZOSIN]
-5.98	–	1.74 nM	–	28.2 nM	47.9 nM	COc1ccccc1N1CCN(CCN2C(=O)CC3(CCCC3)CC2=O)CC1.Cl.Cl
